From patent US10435388B2, “Selective inhibitors of clinically important mutants of the EGFR tyrosine kinase” (CS PHARMATECH LIMITED, priority 2016, dated 2019)
“And” between values parts separate entries of the source, which are not always exact repeats. Equal entries are not always repeated. Where two headings read alike, the source gives them in different places.

How the values were obtained:
[1] = system: LoVo cells (unmutated EGFR wild type); test: LoVo growth inhibition assay (cell proliferation), Method A; assay type: cell-based; conditions: Homo sapiens, cellular proliferation, 72 h, CellTiter-Glo (Table 1), read-out: LoVo IC50 (nM) WT
Experimental: (§1) Cell Proliferation Assays—Method A
LoVo Growth Inhibition Assay (Cell Proliferation)
The rest of the procedure was carried out in the same manner as described for the H1975 cells.

IGF-1R = biological target: T1, IGF-1R (Homo sapiens, UniProt P08069); test: IGF-1R inhibition assay (Caliper EZ Reader); assay type: biochemical; conditions: enzyme assay
T1 construct: purchased CARNA BIOSCIENCE 08-141
T1 sequence (P08069 959-1367 limits assumed): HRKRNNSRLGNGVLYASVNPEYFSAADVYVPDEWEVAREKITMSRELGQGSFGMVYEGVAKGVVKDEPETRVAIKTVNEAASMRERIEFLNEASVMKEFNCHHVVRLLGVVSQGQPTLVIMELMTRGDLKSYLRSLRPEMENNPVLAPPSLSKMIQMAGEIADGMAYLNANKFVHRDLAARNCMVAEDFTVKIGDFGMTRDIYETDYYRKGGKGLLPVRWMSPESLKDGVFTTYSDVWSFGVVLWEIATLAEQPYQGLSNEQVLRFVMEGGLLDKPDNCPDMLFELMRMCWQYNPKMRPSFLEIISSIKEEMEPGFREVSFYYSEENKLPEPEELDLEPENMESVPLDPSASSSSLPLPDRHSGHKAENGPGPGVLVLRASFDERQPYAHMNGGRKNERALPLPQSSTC
Experimental: (§2) Test compound was dissolved in DMSO at 30 mM. […] 20 nL of these compounds DMSO dilutes were dispensed into a new 384-well assay plate by Echo 550. […] 15 uL of kinase assay buffer containing IGF-1R protein and substrate was transferred to assay plate and incubate at RT for 30 minutes. Kinase assay buffer supplemented with substrate peptides was employed as low control to monitor the background. 40 μM ATP was prepared in kinase assay buffer containing and 5 μL of ATP solution was added to each well to start the reaction. The assay plate was incubated at 25° C. for 180 minutes and the reaction was stopped by adding 40 μL of 0.5 M EDTA.
Phosphorylated fluorescent-tagged peptides were differentiated from non-phosphorylated peptides by separating using Caliper EZ Reader II and the detection was directly converted to conversion ratio.

[2] = system: PC9 cells (EGFR d746-750 single mutant); test: PC-9 growth inhibition assay (cell proliferation), Method A; assay type: cell-based, human; conditions: Homo sapiens, PC-9; cellular proliferation, PC9 cells, 72 h, CellTiter-Glo (Table 1); read-out: PC9 IC50 (nM) SM
Experimental: as §1
(§3) The final concentration was 4,000 cells/well. Add medium only as low control.
(§4) Day-2: Test compounds were dissolved in DMSO at 0.2 mM (200×).
(§5) Day-5: After 72 hours incubation, remove the plates from incubator and equilibrate at room temperature for 15 minutes. Incubate the CellTiter Glo reagents (Promega, G9243) at 37° C. before the experiment. The buffer was equilibrated to room temperature and used to dissolve the substrate. To determine the cell viability, add 30 μL of CellTiter-Glo reagent into each well to be detected. Then shake the plates at room temperature for 10 min and followed by plate read on Envision (PerkinElmer).
(§6) For estimation of IC50, the luminescence readout are transformed to % Inhibition by applying the following equation: The IC50 was then
(§7) [formula] calculated by fitting in XLFit to a four parameters logistic curve.
PC-9 Growth Inhibition Assay (Cell Proliferation)
The inhibition assay for PC-9 cells was processed in the same manner as described for the H1975 cells.

INSR = biological target: T2, INSR (Homo sapiens, UniProt P06213); test: INSR inhibition assay (Caliper EZ Reader); assay type: biochemical; conditions: enzyme assay
T2 construct: purchased CARNA BIOSCIENCE 08-142
Experimental: as §2, with “INSR” for “IGF-1R”, “LM” for “μM”
The result is analyzed in the same manner of […].

[3] = system: NCI-H1975 cells (EGFR L858R/T790 double mutant); test: H1975 inhibition assay (cell proliferation), Method A; assay type: cell-based; conditions: Homo sapiens; cellular proliferation, NCI-H1975 cells, 72 h, CellTiter-Glo (Table 1); read-out: NCI-H1975 IC50 (nM) DM
Experimental: as §1
H1975 Inhibition Assay (Cell Proliferation)
as §3, §4, §5, §6, §7

[4] = system: p-EGFR in PC9 cells (Exon 19 deletion EGFR); test: Exon19 deletion EGFR (activating single mutant) PC-9 cellular autophosphorylation assay; assay type: cell-based, human; conditions: 2 h treatment, ELISA
Experimental: Cellular EGFR Autophosphorylation Assays.
The human lung cell line PC9 (Exon 19 deletion EGFR) is obtained from the American type Culture Collection. […] Cells are grown in a humidified incubator at 37° C. with 5% CO2, Assays to measure cellular phosphorylation of endogenous p-EGFR in cell Iysates are carried out according to the protocol described in the R&D Systems DuoSet IC Human Phospho-EGF R ELISA (R&D Systems catalogue number #DYCI095). 40 μL of cells are seeded (10000 cells/well) in growth medium in Corning black, clear-bottomed 384-well plates and incubated at 37° C., with 5%0/CO2 overnight. […] Plates are incubated for a further 2 h, then following aspiration of medium, 40 μL×lysis buffer is added to each well. Greiner black high bind 384 well plates are coated with capture antibody and then blocked with 3% BSA. Following removal of block, 15 μL of lysate are transferred to the Greiner black high bind 384 well plates and incubated for 2 hours. Following aspiration and washing of the plates with PBS, 20 μL of detection antibody are added and incubated for 2 hours. […] The data obtained with each compound are exported into a suitable software package (such as Origin) to perform curve fitting analysis.

[5] = system: p-EGFR in H1975 cells (L858R/T790M double mutant EGFR)
Wt EGFR = biological target: T3, Wt EGFR (Homo sapiens, UniProt P00533); test: Enzyme assay, IC50 for wt EGFR (Caliper); assay type: biochemical; conditions: enzyme phosphorylation assay; read-out: EGFR_WT IC50
T3 construct: isolated from A431 human epidermoid carcinoma cells which overexpress EGF receptor; endogenous in cells; host or cells: A431 human epidermoid carcinoma cells (receptor purified on wheat germ agglutinin sepharose)
T3 sequence (P00533 25-1210): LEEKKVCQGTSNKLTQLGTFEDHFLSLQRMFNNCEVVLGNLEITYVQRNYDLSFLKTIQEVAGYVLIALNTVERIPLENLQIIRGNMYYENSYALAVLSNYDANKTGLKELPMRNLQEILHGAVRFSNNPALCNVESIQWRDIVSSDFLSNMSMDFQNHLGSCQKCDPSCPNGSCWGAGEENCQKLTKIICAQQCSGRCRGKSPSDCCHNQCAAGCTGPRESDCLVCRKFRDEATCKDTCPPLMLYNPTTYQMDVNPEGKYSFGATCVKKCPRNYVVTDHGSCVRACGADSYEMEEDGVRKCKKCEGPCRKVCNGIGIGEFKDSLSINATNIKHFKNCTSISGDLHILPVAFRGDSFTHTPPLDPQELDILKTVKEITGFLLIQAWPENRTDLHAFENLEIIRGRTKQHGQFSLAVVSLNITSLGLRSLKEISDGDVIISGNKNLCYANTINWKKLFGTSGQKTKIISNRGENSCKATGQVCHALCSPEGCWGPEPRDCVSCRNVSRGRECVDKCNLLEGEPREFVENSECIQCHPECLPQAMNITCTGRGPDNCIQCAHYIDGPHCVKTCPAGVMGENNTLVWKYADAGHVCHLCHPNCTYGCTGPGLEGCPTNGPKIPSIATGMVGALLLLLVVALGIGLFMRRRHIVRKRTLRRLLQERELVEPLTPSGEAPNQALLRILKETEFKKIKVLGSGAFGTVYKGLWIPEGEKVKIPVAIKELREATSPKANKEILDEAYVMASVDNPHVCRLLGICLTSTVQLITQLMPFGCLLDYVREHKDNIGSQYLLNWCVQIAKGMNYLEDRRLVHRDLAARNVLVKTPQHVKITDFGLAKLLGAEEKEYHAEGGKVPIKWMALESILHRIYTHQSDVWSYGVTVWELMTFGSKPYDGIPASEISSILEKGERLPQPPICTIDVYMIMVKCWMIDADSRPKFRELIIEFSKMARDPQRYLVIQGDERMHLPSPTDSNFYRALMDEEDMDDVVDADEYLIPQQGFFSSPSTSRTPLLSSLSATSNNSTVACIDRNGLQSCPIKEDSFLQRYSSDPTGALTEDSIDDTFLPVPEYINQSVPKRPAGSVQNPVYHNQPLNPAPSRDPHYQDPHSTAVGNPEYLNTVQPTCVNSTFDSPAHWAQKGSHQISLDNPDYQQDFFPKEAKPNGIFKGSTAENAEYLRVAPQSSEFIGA
Experimental: Purification of Epidermal Growth Factor Receptor Tyrosine Kinase Human EGF receptor tyrosine kinase was isolated from A431 human epidermoid carcinoma cells which overexpress EGF receptor by the following methods. Cells were grown in roller bottles in 50% Delbuco's Modified Eagle and 50% HAM F-12 nutrient media (Gibco) containing 10% fetal calf serum. Approximately 10^9 cells were lysed in two volumes of buffer containing 20 mM 2-(4N-[2-hydroxyethyl]piperazin-1-yl)ethanesulfonic acid (hepes), pH 7.4, 5 mM ethylene glycol bis(2-aminoethyl ether) N,N,N′,N′-tetraacetic acid, 1% Triton X-1OO, 10% glycerol. 0.1 mM sodium orthovanadate, 5 mM sodium fluoride, 4 mM pyrophosphate, 4 mM benzamide, 1 mM dithiothreitol, 80 μg/mL aprotinin, 40 μg/mL leupeptin and 1 mM phenylmethylsulfonyl fluoride. After centrifugation at 25,000×g for 10 minutes, the supernatant was equilibrated for 2 h at […], with 10 mL of wheat germ agglutinin sepharose that was previously equilibrated with 50 mM Hepes, 10% glycerol, 0.1% Triton X-100 and 150 mM NaCl, pH 7.5, (equilibration buffer). Contaminating proteins were washed from the resin with 1M NaCl in equilibration buffer, and the enzyme was eluted with 0.5M N-acetyl-1-D-glucosamine in equilibration buffer, followed by 1 mM urea. The enzyme was eluted with 0.1 mg/ml EGF.
Determination of IC50 Values for Wt EGFR
Dilute all compounds to 500 μM stock solutions in 100% DMSO and make a serial of 4-fold dilution for 10 does. “Max” and “Min” control contain 100% DMSO. “Max” stands for […], “Min” stands for low control without compounds. Transfer 10 μl of compounds to 90 μl of Ix kinase base buffer to make intermediate dilution. Transfer 5 μl of intermediate dilution compounds to the 384-well assay plate, then 10 μl 2.5× enzyme buffer containing (20 nM EGFR, 5 mM DTT, 1× kinase base buffer) were added to assay plate. […] Incubate at RT for 1 hr and 25 μl stop buffer to end up reaction. Collect conversion data from Caliper and conversion data from Caliper program. Fit the data in XLfit to obtain IC50 values.

EGFR_d746-750 = EGFR_d746-750 (Homo sapiens, UniProt P00533, DEL746-750); test: Enzyme assay, IC50 for single mutant EGFR_d746-750 (Caliper); assay type: biochemical; conditions: enzyme phosphorylation assay
Chain of EGFR_d746-750 (P00533 with tags, fused parts or gaps DEL746-750): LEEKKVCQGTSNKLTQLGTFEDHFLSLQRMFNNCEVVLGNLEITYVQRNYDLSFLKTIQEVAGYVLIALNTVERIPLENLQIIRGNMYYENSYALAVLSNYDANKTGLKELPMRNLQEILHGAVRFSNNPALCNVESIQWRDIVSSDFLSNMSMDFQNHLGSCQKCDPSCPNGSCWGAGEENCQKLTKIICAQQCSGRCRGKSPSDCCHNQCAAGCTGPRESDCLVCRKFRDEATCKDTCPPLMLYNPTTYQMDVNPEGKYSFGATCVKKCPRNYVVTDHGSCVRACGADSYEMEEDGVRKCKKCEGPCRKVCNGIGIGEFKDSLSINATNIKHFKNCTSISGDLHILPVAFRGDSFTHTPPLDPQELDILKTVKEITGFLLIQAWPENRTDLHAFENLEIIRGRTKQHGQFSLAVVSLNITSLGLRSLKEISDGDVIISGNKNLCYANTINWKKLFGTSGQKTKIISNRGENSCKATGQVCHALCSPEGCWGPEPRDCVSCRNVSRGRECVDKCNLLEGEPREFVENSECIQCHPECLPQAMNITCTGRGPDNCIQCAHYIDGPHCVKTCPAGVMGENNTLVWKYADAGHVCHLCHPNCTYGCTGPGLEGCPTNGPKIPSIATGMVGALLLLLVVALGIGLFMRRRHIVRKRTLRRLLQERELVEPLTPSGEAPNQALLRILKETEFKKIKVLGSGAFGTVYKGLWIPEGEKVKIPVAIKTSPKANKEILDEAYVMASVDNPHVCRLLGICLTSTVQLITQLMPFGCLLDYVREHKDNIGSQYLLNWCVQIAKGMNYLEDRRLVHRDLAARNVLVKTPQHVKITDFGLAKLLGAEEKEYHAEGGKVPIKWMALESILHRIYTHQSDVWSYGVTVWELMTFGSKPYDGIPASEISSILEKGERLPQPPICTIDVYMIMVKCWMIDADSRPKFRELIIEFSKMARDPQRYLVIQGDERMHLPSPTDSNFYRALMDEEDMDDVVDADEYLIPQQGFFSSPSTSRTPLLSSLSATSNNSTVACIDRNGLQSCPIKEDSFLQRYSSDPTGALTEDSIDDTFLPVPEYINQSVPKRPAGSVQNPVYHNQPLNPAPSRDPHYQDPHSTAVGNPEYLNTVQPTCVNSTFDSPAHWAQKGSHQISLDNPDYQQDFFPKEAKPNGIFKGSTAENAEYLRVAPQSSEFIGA
Experimental: (§8) Using the same technique as described in the previous paragraph, various mutated forms of the epidermal growth factor receptor may be isolated from appropriate cell lines which contain them. For example, the EGFR de1746-750 mutant protein may be extracted from PC-9 cells, and the L858R/T790M double mutant EGFR protein may be isolated from H1975 cells.
Determination of IC50 Values for Single Mutant EGFR_d746-750
Dilute all compounds to 500 μM stock solutions in 100% DMSO and make a serial of 4-fold dilution for 10 doses. “Max” and “Min” control contain 100% DMSO. “Max” stands for […], “Min” stands for low control without compounds. Transfer 10 μl of compounds to 90 μl of 1× kinase base buffer to make intermediate dilution. […] Incubate at RT for 1 hr and 25 μl stop buffer to end up reaction. Collect conversion data from Caliper and conversion data from Caliper program. Fit the data in XLfit to obtain IC50 values.

EGFR_T790M/L858R = EGFR_T790M/L858R (Homo sapiens, UniProt P00533, L858R/T790M); test: Enzyme assay, IC50 for double-mutant EGFR (EGFR_T790M/L858R) (Caliper); assay type: biochemical; conditions: enzyme phosphorylation assay; read-out: EGFR_L858R/T790 IC50
Chain of EGFR_T790M/L858R (P00533 25-1210 T790M/L858R): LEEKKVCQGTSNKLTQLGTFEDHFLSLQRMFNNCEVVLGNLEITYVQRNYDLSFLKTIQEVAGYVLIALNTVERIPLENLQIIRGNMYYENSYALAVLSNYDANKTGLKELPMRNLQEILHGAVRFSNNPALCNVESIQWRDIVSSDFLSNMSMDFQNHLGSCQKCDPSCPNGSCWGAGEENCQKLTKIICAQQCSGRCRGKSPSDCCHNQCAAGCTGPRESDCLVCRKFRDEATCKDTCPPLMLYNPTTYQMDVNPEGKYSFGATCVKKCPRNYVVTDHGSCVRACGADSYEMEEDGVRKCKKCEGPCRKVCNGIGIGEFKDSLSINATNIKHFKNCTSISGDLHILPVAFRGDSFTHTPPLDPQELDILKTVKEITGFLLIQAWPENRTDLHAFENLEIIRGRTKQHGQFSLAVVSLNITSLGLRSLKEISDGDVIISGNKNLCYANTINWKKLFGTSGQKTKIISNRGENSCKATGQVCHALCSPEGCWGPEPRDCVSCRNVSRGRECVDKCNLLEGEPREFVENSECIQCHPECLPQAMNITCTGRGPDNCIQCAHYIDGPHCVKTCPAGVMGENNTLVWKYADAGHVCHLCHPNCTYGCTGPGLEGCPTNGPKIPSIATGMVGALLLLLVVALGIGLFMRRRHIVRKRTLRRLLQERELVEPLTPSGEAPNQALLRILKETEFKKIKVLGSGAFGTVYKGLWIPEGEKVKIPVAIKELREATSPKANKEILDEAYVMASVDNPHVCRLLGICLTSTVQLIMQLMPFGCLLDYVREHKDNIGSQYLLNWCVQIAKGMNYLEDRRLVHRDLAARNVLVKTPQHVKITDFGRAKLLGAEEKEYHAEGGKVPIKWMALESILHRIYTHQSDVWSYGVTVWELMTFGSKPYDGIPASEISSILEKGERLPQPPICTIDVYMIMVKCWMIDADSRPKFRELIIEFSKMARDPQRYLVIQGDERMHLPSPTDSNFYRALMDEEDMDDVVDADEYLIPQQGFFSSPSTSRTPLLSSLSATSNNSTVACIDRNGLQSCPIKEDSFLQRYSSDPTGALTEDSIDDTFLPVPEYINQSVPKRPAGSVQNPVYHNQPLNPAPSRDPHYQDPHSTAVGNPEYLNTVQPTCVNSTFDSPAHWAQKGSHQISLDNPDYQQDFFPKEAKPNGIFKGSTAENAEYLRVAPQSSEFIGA
Experimental: as §8
Determination of IC50 Values for Double-Mutant EGFR (EGFR_T790M/L858R)
Dilute all compounds to 500 μM stock solutions in 100% DMSO and make a serial of 4-fold dilution for 10 does. “Max” and “Min” control contain 100% DMSO. “Max” stands for […], “Min” stands for low control without compounds. Transfer 10 μl of compounds to 90 μl of 1× kinase base buffer to make intermediate dilution. […] Incubate at RT for 1 hr and 25 μl stop buffer to end up reaction. Collect conversion data from Caliper and conversion data from Caliper program. Fit the data in XLfit to obtain IC50 values.

IC50 [1] [nM]	IC50 [2] [nM]	IC50 [3] [nM]	IC50 (Wt EGFR) [nM]	IC50 (EGFR_d746-750) [nM]	IC50 (EGFR_T790M/L858R) [nM]	SMILES	IC50 (IGF-1R)	IC50 (INSR)	IC50 [4] [nM]	IC50 ([4]; Homo sapiens, PC-9, 2 h) [nM]	IC50 ([5]; Homo sapiens, NCI-H1975, 2 h, read-out: H1975 IC50 (nM), cellular EGFR autophosphorylation, 2 h treatment, ELISA) [nM]	IC50 ([5]; read-out: H1975 IC50, cellular EGFR autophosphorylation, 2 h treatment, ELISA) [nM]
3570	6.8	3.1	4.1	2.4	0.7	C=CC(=O)Nc1cc(Nc2nccc(-n3ccc4ccccc43)n2)c(OC)cc1N(C)CCN(C)C [Example 1]	–	–	–	–	–	–
5030	12.3	7.5	7.1	3.1	1.3	C=CC(=O)Nc1cc(Nc2nccc(-n3cc(C)c4ccccc43)n2)c(OC)cc1N(C)CCN(C)C [Example 2, N-(2-(N-(2-(N,N-Dimethylamino)ethyl)-N-methylamino)-4-methoxy-5-(4-(3-methylindol-1-yl)pyrimidin-2-ylamino)phenyl) propenamide]	–	–	–	–	–	–
2810	23.3	17.9	8.4	5.3	1.5	C=CC(=O)Nc1cc(Nc2nccc(-n3cc(Cl)c4ccccc43)n2)c(OC)cc1N(C)CCN(C)C [Example 3, N-(2-(N,N-(2-(N,N-Dimethylamino)ethyl)-N-methylamino)-4-methoxy-5-(4-(3-chloroindol-1-yl)pyrimidin-2-ylamino)phenyl) propenamide]	–	–	–	–	–	–
2890	25.9	18.8	3.8	2.6	0.84	C=CC(=O)Nc1cc(Nc2nccc(-n3cc(C#N)c4ccccc43)n2)c(OC)cc1N(C)CCN(C)C [Example 4, N-(2-(N-(2-(N,N-Dimethylamino)ethyl)-N-methylamino)-4-methoxy-5-(4-(3-cyanoindol-1-yl)pyrimidin-2-ylamino)phenyl) propenamide]	–	–	–	–	–	–
2630	1.6	1.7	1.1	0.85	1.2	C=CC(=O)Nc1cc(Nc2nccc(-n3cc(C(N)=O)c4ccccc43)n2)c(OC)cc1N(C)CCN(C)C [Example 7, N-(2-(N-(2-(N,N-Dimethylamino)ethyl)-N-methylamino)-4-methoxy-5-(4-(3-carboxamidoindol-1-yl)pyrimidin-2-ylamino)phenyl) propenamide]	–	–	–	–	–	–
6650	3.5	2.9	2.1	1.2	1.8	C=CC(=O)Nc1cc(Nc2nccc(-n3cc(CO)c4ccccc43)n2)c(OC)cc1N(C)CCN(C)C [Example 8, N-(2-(N-(2-(N,N-Dimethylamino)ethyl)-N-methylamino)-4-methoxy-5-(4-(3-(hydroxymethyl)indol-1-yl)pyrimidin-2-ylamino)phenyl) propenamide]	–	–	–	–	–	–
5860	3.4	2.4	1.5	1.1	1.3	C=CC(=O)Nc1cc(Nc2nccc(-n3cc(S(C)(=O)=O)c4ccccc43)n2)c(OC)cc1N(C)CCN(C)C [Example 9, N-(2-(N-(2-(N,N-Dimethylamino)ethyl)-N-methylamino)-4-methoxy-5-(4-(3-(methylsulfonyl)indol-1-yl)pyrimidin-2-ylamino)phenyl) propenamide]	–	–	–	–	–	–

SMILES	IC50 [1] [nM]	IC50 [2] [nM]	IC50 [3] [nM]	IC50 (Wt EGFR) [nM]	IC50 (EGFR_d746-750) [nM]	IC50 (EGFR_T790M/L858R) [nM]	IC50 (IGF-1R)	IC50 (INSR)	IC50 [4] [nM]	IC50 ([4]; Homo sapiens, PC-9, 2 h) [nM]	IC50 ([5]; Homo sapiens, NCI-H1975, 2 h, read-out: H1975 IC50 (nM), cellular EGFR autophosphorylation, 2 h treatment, ELISA) [nM]	IC50 ([5]; read-out: H1975 IC50, cellular EGFR autophosphorylation, 2 h treatment, ELISA) [nM]
C=CC(=O)Nc1cc(Nc2nccc(-c3cn(C)c4ccccc34)n2)c(OC)cc1N(C)CCN(C)C [AZD-9291]	2860	8.4	[…]	–	–	–	249 nM and 321 nM	[…]	7.31	12.1	22.7	11.6
